EP1024807B1, “USE OF THE COMPOUND 2-METHOXYPHENYL-1-METHYL-5P-METHYLBENZOYL-PYRROL-2-ACETAMIDO ACETATE FOR THE PRODUCTION OF AN ANTI-INFLAMMATORY DRUG WITH PREVENTION OF GASTRIC HYPERSECRETION AND RENAL IMPAIRMENT” (MEDOSAN Ricerca S.r.l., priority 1997, dated 1999)
Entries after “also recorded” stand apart in the source; their conditions may differ.

Experiments:
COX2 (cyclooxygenase 2) = target: T1, COX2 (cyclooxygenase 2) (Rattus norvegicus, UniProt P35355); assay: Pharmacological studies in rats: cyclooxygenase inhibition; details: in vivo
T1 construct: the pharmacological studies conducted in rats; from tissue; host or cells: rat (in vivo; tissue not given)

osteoarthritis = assay: Clinical trials in osteoarthritis; assay type: in vivo, man; details: 550 patients, mean 80 days; versus seven reference NSAIDs; listed as Amtolmetin guacyl
Text: In this degenerative disease amtolmetin guacyl was compared with diclofenac, diflunisal, flurbiprofen, ibuprofen, ketoprofen, naproxen and tolmetin.

Saccharomycetes pombe Pl = assay type: cell-based
platelet aggregation = assay: Platelet aggregation
Text: For all of these reasons the drug was expected to induce gastric damage and inhibit platelet aggregation.

Rats = assay: Carrageenan pleurisy, exudate volume at 4 hours; assay type: in vivo; details: for Exudate volume: 4 hour; for decrease exudate volume: compared to gum tragacanth control
Description: Compounds were administered orally 1 hour prior to and 1 hour post pleurisy induction in a volume of 0.5 ml 1% gum tragacanth. Indomethacin was used at 3 mg/kg. MED 15 was used at 25, 50 and 100 mg/kg.
A 1% solution of carrageenan in sterile saline was prepared. The solution was placed in an incubator at 37°C for half an hour to allow complete hydration of the carrageenan. The solution was then mixed to homogeneity.
A 21Gx40mm syringe needle was reduced in length to 5mm and fitted to a 1ml syringe containing the irritant. Rats were lightly anaesthetised with halothane. Each animal was placed on its left side. The skin over the thorax was lifted with and a 1cm incision made through the skin with a pair of scissors. The wound was opened to expose the underlying muscle. Using a scalpel, a 2-3mm incision was made into the muscle of the 5th-6th intercostal space. A volume of 0.15ml of carrageenan solution was then injected into the pleural cavity. The wound was closed with a 11mm Michel clip and the animal allowed to recover from the anaesthetic. Groups of animals were killed 4 hours after pleurisy induction.
Lavage solution: One part of 3.15% trisodium citrate solution, mixed with nine parts of Hank's balanced salt solution.
Rats were killed by over exposure to carbon dioxide. For each rat the skin over the thorax was moistened with IMS alcohol. The skin over the sternum was then lifted and a 5cm cut made, to expose the musculature of the upper abdomen and thoracic cavity. The muscle overlying the xiphisternum was lifted with tissue forceps and a 1cm cut made through the muscle to reveal the cartilage. This was then lifted and the diaphragm perforated just beneath the cartilage. Two cuts were then made through the rib cage either side of the cartilage to form a flap which could be folded back to expose the thoracic cavity.
Using a syringe, 1ml of lavage fluid was introduced into the thoracic cavity. The fluid was aspirated 2-3 times with a 3ml pastette to wash the cavity, before being collected into separate 10ml conical-based plastic test-tubes. Any blood contaminated fluids were rejected.
The mass of each tube with fluid was determined. By subtracting the mass of an empty tube from these values, and assuming a density for the fluid of 1g/cm^3, the fluid volume was quantified.
Results were analysed by ANOVA followed by Bonferroni T-test. Values of p<0.05 were considered significant.
Dosing was one hour prior to and one hour post pleurisy induction and inflammation was assessed at 4 hours.

COX1 (cyclooxygenase 1) = target: T2, COX1 (cyclooxygenase 1) (Rattus norvegicus, UniProt Q63921); assay: Pharmacological studies in rats: cyclooxygenase inhibition; details: in vivo
T2 construct: the pharmacological studies conducted in rats; from tissue; host or cells: rat (in vivo; tissue not given)

Anaesthetized Rat = assay: Drug safety trials: blood pressure and cardiovascular system; details: in vivo
Text: From a toxicological viewpoint the drug offers an excellent torability profile.

post-operative pain = assay: Clinical trials in post-operative pain; assay type: in vivo, man
Description: As reported in Table 14, the analgesic properties of amtolmetin guacyl were tested in postoperative pain with good results. […] The peak effect is obtained only after 2 hours, and it is maintained for 6 hours.

gastric PGE2 = assay: Effect on gastric PGE2 in the rat; assay type: in vivo
Text: Moreover, as with all the NSAIDs currently aveilable, it inhibits gastric PGE2 in the rat, albeit to a lesser degree than ASA (Table 7).

Salmonella Typhimurium = assay type: cell-based
gastric acid secretion = assay: Gastric acid secretion in the rat; assay type: in vivo
Text: (§1) On the basis of the above series of observations, we decided to study the pharmacological behaviour of a number of widely used NSAIDs (including amtolmetin guacyl) towards the gastric mucosa in the rat, as previously described. […] The first hypothesis was that we were deling with an anti-H2 drug, given the fact that its potency could be compared with that of cimetidine.
The introduction of a guaiacol moiety into the amtolmetin guacyl molecule led to the insertion of a vanilloid radical which confers gastroprotective properties to the molecule.

H2 receptors = target: T3, H2 receptors (Cavia porcellus, UniProt P47747); assay: Isolated atrium, histamine stimulation; details: guinea-pig atrium, fig. 5
T3 construct: using an organ in which only H2 receptors were present (guinea-pig atrium); from tissue; host or cells: guinea-pig atrium
Text: as §1

[1] = tested on: extra-articular rheumatism; assay: Clinical trials in extra-articular rheumatism; assay type: in vivo, man; details: 90 patients, 14 days; versus diclofenac, naproxen, piperazine propionate
Text: In extra-articular rheumatism amtolmetin guacyl was compared with diclofenac, naproxen and piperazine propionate.

Saccharomycetes D4 = assay: Mitotic conversion test; assay type: cell-based
[2] = tested on: patients with rheumatoid arthritis in the active phase; assay: Clinical trials in rheumatoid arthritis; assay type: in vivo, man; details: 150 patients, 30 days; versus ibuprofen, indomethacin, piroxicam, tolmetin; listed as Amtolmetin guacyl
Text: Amtolmetin guacyl was compared with ibuprofen, indomethacin, piroxicam and tolmetin.

rabbit = assay: Fertility, embryotoxicity and teratogenicity studies; assay type: in vivo
[3] = tested on: gastric bicarbonate secretion; assay: Gastric bicarbonate secretion after stimulation with histamine; assay type: in vivo, rat; details: fig. 6
rat = assay: Carcinogenesis studies, gavage over the life-span; assay type: in vivo; details: gavage for a period covering the animal's life-span

T1 sequence (P35355 18-604): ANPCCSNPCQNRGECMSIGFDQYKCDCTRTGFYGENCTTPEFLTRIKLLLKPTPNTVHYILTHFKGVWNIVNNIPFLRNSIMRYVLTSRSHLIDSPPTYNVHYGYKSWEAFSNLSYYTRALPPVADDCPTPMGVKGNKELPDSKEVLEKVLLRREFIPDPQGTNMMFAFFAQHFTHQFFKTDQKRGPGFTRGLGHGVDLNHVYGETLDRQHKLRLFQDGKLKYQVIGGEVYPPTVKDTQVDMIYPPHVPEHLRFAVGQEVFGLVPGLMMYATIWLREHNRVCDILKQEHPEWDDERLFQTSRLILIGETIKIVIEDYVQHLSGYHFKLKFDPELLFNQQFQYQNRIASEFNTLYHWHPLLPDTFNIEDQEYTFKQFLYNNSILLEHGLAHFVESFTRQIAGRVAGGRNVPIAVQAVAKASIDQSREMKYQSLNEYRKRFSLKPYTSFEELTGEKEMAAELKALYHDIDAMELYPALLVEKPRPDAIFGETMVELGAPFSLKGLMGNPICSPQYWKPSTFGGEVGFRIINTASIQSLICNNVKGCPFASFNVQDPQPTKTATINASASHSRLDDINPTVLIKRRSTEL
T2 sequence (Q63921 27-602): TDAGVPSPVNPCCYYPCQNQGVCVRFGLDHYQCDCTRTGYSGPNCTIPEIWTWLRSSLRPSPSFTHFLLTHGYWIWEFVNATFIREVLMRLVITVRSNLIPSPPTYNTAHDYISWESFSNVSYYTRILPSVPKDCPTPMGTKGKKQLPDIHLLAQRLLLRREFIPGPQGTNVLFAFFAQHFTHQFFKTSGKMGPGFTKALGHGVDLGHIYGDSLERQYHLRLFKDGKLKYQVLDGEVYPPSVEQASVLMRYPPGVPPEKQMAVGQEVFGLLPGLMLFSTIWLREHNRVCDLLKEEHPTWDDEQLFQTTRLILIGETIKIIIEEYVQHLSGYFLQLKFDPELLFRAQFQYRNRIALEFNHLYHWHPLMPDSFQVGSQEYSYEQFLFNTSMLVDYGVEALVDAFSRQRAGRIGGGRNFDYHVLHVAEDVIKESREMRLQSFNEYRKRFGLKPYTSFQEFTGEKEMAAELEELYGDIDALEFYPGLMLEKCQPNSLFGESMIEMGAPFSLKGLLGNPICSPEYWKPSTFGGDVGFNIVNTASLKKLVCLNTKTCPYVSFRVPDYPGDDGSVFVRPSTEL
T3 sequence (P47747 whole entry): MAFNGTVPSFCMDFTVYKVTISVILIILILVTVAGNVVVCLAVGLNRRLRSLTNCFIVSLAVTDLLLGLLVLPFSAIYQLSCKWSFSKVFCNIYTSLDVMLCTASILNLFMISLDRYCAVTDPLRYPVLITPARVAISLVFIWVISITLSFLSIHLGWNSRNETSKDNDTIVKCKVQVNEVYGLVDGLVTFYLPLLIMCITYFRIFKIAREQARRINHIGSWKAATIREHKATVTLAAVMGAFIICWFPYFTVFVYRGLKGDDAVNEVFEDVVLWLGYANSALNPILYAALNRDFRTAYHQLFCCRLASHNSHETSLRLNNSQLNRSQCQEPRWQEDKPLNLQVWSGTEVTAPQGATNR

COc1ccccc1OC(=O)CNC(=O)Cc1ccc(C(=O)c2ccc(C)cc2)n1C [MED 15, 2-methoxyphenyl-1-methyl-5p-methylbenzoylpyrrol-2-acetamido acetate]
inhibition of COX2 (COX2 (cyclooxygenase 2)): inhibition | Evaluation of antiphlogistic activity (osteoarthritis): statistically significant more rapid and more marked activity; also recorded: Amtolmetin guacyl was more rapid and more active in a statistically significant manner in osteoarthritis compared to the reference NSAIDs | forward mutation (Saccharomycetes pombe Pl): absence of amtolmetin guacyl-related damage | platelet antiaggregating properties (platelet aggregation): significant platelet antiaggregating properties | Exudate volume (Rats; 25mg/kg orally 1 hour prior to and 1 hour post induction): 0.84 ± 0.09 mL | decrease exudate volume (Rats; 25mg/kg): 11% | Exudate volume (Rats; 50mg/kg orally 1 hour prior to and 1 hour post induction): 0.74 ± 0.06 mL | decrease exudate volume (Rats; 50mg/kg): 21% | Exudate volume (Rats; 100mg/kg orally 1 hour prior to and 1 hour post induction): 0.53 ± 0.05 mL | decrease exudate volume (Rats; 100mg/kg): 44% | inhibition of COX1 (COX1 (cyclooxygenase 1)): inhibition | effects on blood pressure and on the cardiovascular system (Anaesthetized Rat): absence of effects | time at which the effect is already evaluable (post-operative pain; following administration): 30 ' | antalgic effect (post-operative pain; post-operative pain): statistically significant | time the effect is maintained (post-operative pain; post-operative pain): 6 h | time to peak effect (post-operative pain; post-operative pain): 2 h | %inhibition (gastric PGE2; gastric PGE2 versus controls): 69.9% | PGE2 (ngtg^Δ tissue)±S.E. (gastric PGE2; gastric tissue, rat, controls 108.7±23.9): 32.7±8.5 nanograms for gram of tissue | Ames test (Salmonella Typhimurium): absence of amtolmetin guacyl-related damage | basal acid secretion (gastric acid secretion; basal, unstimulated): fails to modify | effect on gastric acid (gastric acid secretion; rat, in vivo): reduction of gastric acid | activity on gastric secretion after CGRP antagonist (gastric acid secretion; with CGRP8-37, peptone-stimulated, fig. 14): blockage | effect on gastric acid secretion after capsaicin receptor antagonist (gastric acid secretion; with capsazepine, peptone-stimulated, fig. 16): inhibited by the capsazepine antagonist | interference with the H2 receptors (H2 receptors): did not interfere with the H2 receptors | Evaluation of antiphlogistic activity [1]: In this indication no significant differences were noted between amtolmetin guacyl and the reference compounds. | mitotic conversion (Saccharomycetes D4): absence of amtolmetin guacyl-related damage | Evaluation of antiphlogistic activity [2]: significantly more rapid and marked anti-inflammatory activity compared to the reference NSAIDs; also recorded: Amtolmetin guacyl demonstrated statistical significant activity more rapid and more marked when compared to the reference NSAIDs in rheumatoid arthritis | fertility, embriotoxicity and teratogenicity (rabbit): safety | increase in bicarbonate production [3]: 67% | Carcinogenesis (rat): innocuity
